This passage reports GI50 and TGI results from PubChem BioAssay (NCI).

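Briefly, cells in 96-well plates were exposed to five compound concentrations for 48 h, and endpoints were estimated by linear interpolation. The concentration for 50% growth inhibition is given as GI50. TGI: concentration producing complete growth inhibition.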

Common to all, as to test: DTP human tumour cell line panel, 48 h
The test system of test [1] is M14 melanoma.
Test [2] deals with OVCAR-5 ovarian.
The test system of test [3] is OVCAR-8 ovarian.
Test [4] relates to SK-MEL-2 melanoma.
Test [5] concerns PC-3 prostate.
For test [6], the system named is UO-31 renal.
The subject of test [7] is SK-MEL-5 melanoma.
Test [8] has as its system HCC-2998 colon.
Test [9] has as its system SR leukemia.
Test [10] concerns RPMI-8226 leukemia.

On to `N#CC1=C(N)Oc2c(ccc3ccccc23)C1c1ccccc1Cl` (stereo not given), for which the GI50 (usually the concentration at which growth is held to half of that of the control) was 0.188 µM in [1]; 0.545 µM in test [2]; 0.542 µM in test [3]; 0.558 µM in [4]; 0.317 µM in [5]; 0.282 µM in [6]. Also, the GI50 in test [7] was 0.487 µM; in test [8], 0.429 µM; in test [9], 0.107 µM; in [10], 0.348 µM. Besides, the total growth inhibition concentration (TGI) (in general, the concentration at which net growth stops) in test [1] was 3.39 µM; in [2] it was 18.8 µM; in test [3] it was > 57.7 µM; in test [4], 18 µM; in test [5], 16.2 µM; in [6] it was 24.8 µM. Besides, the TGI in [7] worked out at 4.87 µM; in [8], 11.6 µM; in test [9] it was 22.1 µM; in test [10] it was 8.86 µM.
In the case of `C[As](C)SCC(COC(=O)c1ccccc1)OC(=O)c1ccccc1` (stereo not given), the GI50 in [1] was 0.0588 µM; in test [2], 0.556 µM; in [3] it was 0.225 µM; in [4], 0.4 µM; in [5], 0.358 µM; in test [6], 0.763 µM. Further, the concentration for 50% growth inhibition (GI50) is 0.015 µM in test [7], 0.104 µM in test [8], 0.0241 µM in test [9] and 0.0264 µM in test [10]. For the same compound, the TGI turned out to be 1.86 µM in test [1]; 2 µM in test [2]; 0.667 µM in [3]; 2.8 µM in [4]; 15.7 µM in test [5]; 8.06 µM in [6]. Moreover, the TGI in test [7] stood at 0.0678 µM; in test [8], 0.232 µM; in test [9], 0.183 µM; in test [10], 0.357 µM.
In the case of `COc1c(C)cnc(Cn2cnc3c(Cl)nc(N)nc32)c1C`, the GI50 in test [1] was 0.478 µM; in test [2], 1.13 µM; in [3] it was 0.323 µM; in [4] it was 0.434 µM; in test [5] it was 0.359 µM; in test [6], 0.141 µM. Moreover, the GI50 is 0.557 µM in test [7], 0.457 µM in test [8], 0.117 µM in [9] and 0.333 µM in [10]. Besides, the TGI in test [1] was > 100 µM; in test [2] it was > 100 µM; in test [3], > 100 µM; in [4] it was > 59.5 µM; in [5] it was > 100 µM; in test [6] it was > 47.4 µM. Further, the TGI is 15.9 µM in [7], 10.7 µM in [8], > 100 µM in [9] and > 100 µM in test [10].
Consider `C/C=C\C(C)=C/C(C)C(=O)CC(O)CC1CC(=O)NC(=O)C1` (stereo not given), for which the TGI in test [1] is > 100 µM; in test [2], > 100 µM; in test [3], 98.8 µM; in test [4], > 100 µM; in test [5], > 100 µM; in test [6], > 100 µM. The TGI was > 100 µM in test [7], > 100 µM in test [8], > 63.1 µM in test [9] and > 76.6 µM in test [10].
For the compound `CCCCc1ccc(C(N)=O)nc1`, the GI50 in test [1], in test [2], in test [3], in [4], in [5] and in test [6] was > 100 µM throughout. Also, the GI50 in test [7], in [8], in [9] and in [10] was > 100 µM throughout. Besides, the TGI in test [1], in test [2], in test [3], in test [4], in test [5] and in [6] was > 100 µM each time. The TGI in test [7], in test [8], in test [9] and in test [10] was > 100 µM throughout.
On to `O=C(CN1C(=O)c2ccccc2C1=O)NC1(C(=O)O)CCCC1`, for which the TGI in [1], in [2], in test [3], in [4], in [5] and in [6] was > 100 µM throughout. For the same compound, the TGI in test [7], in test [8], in [9] and in test [10] was > 100 µM in each case.
For `O=C(NC(c1ccccc1)C(O)C(=O)OCc1ccc2c(c1)C(=O)c1ccccc1C2=O)c1ccccc1` (stereo not given), the TGI in test [1] was > 80.5 µM; in test [2] it was 79.9 µM; in test [3], 41 µM; in test [4], 86.9 µM; in test [5], 42.1 µM; in [6], 10.1 µM. In addition, the TGI in [7] is 40.3 µM; in test [8], > 100 µM; in test [9], > 88.3 µM; in test [10] it was > 68.1 µM.
For `CC(=O)OC1C(OC/C2=C/C3[C@@H](C(C)C)CC=C(C)[C@@H]3CC(OC(=O)/C=C/c3cn(C)cn3)[C@]3(C)C=C[C@@]2(O)O3)OCC(O)C1O` (stereo not given in full), the GI50 is 0.0207 µM in [2]; 0.0443 µM in test [3]; 0.0199 µM in [4]; 0.0271 µM in test [5]; 1.13 µM in test [6]; 0.0165 µM in [7]. The GI50 in test [8] is 0.0134 µM; in test [9], 0.0292 µM; in test [10], 0.0244 µM. Moreover, the TGI in test [3] is > 50 µM; in [5], > 50 µM; in [6], > 50 µM; in [8], 0.0658 µM; in test [9], > 50 µM; in [10] it was > 50 µM.
